pIC50: −log10 of the molar value.

This is an account of results in patent US7473708B2, “Agents with leukotriene B4-like antiviral (enveloped RNA) activities” (priority 1996, dated 2009).

Experiment [1] has as its system EBV. Description: Detection of Epstein-Barr Nuclear Antigen (EBNA) in EBV-infected PBMC (ACIF test). The class given is cell-based, human. The conditions noted are these: 100 nM analog, PBMC, six days, EBNA by ACIF. As for the experimental part: After ten days of culture, cells were harvested for determination of the presence of Epstein-Barr Nuclear Antigen (EBNA), a consequence of EBV infection. Preparation of cell smears, fixation and detection of EBNA by the anti-complement immunofluorescence (ACIF) test were carried out as described by Reedman B. M. and Klein G. (Int. J. Cancer, 1973, 11:499). Smears were prepared by spreading 50 μl of a concentrated suspension of washed cells (2×10^6/ml) on clean slides, air dried and fixed in cold acetone (−20° C.) during 10 minutes. Human serum (50 μl) from EBV seropositive donor was used as a source of complement. Slides were incubated at room temperature in a humid chamber during 45 minutes. Slides were then washed three times in phosphate buffer saline (PBS) and stained with 50 μl of fluorescein-5-isothiocyanate (FITC “Isomer I”)-conjugated goat IgG fraction anti-human complement C3 (Cappel Research Products, Durham, N.C.) during 60 minutes at room temperature in a humid chamber. Slides were washed in PBS (3 times), mounted in PBS:glycerol 1:1 and examined. Raji and U937 cells were used as positive and negative controls, respectively. The percentage of EBNA-positive cells was decreased by more than 55% with 30 nM LTB4, and by more than 70% with 100 nM LTB4 (FIG. 2). The results illustrated in FIG. 2 are representative of six (6) other experiments.
(§1) PBMC were infected with EBV and HSV-1 and treated or not with 100 nM of analogs of LTB4 such as 20-OH-LTB4, LTA3 methyl ester, 12(R)-HETE and 5(S), 15(S)-diHETE. After six days of culture, the presence of EBNA antigen (a consequence of EBV infection) was evaluated by the ACIF test, as described in Example I. Similarly, the presence of HSV-1 antigen in PBMC was evaluated by immunofluorescence using an antiserum obtained from a chronically infected donor as described above in section entitled “Detection of Specific HSV-1 Antigen”. […] The results illustrated in Table 1 are representative of three other experiments.

In another experiment the test system is HSV-1 (strain McIntyre). Description: Detection of specific HSV-1 antigen in HSV-1-infected PBMC (immunofluorescence). To be noted: 100 nM analog, six days, antiserum immunofluorescence. It is filed as cell-based, human. Here is the method: Synthesis of the viral antigen was inhibited by 60% in the presence of 100 nM LTB4 (FIG. 4). The results illustrated in FIG. 4 are representative of five (5) other experiments.
as §1

For experiment [2], the system named is EBV. To be noted: in vitro, read-out: IC50, viral replication; cited from earlier work.
The next experiment has as its system HSV. The conditions noted are these: in vitro, read-out: IC50, viral replication; cited from earlier work.

Consider `CCCCC[C@H](O)/C=C/C=C\C/C=C\C=C\[C@@H](O)CCCC(=O)O` [5(S),15(S)-diHETE, 5(S),15(S)-dihydroxy-6,8,11,13-(E,Z,Z,E)-eicosatetrae-noic acid], for which the “EBV infection, percentage of inhibition compared to infected PBMC cultured in the absence of analogs” value in the experiment with EBV [1] came out at 50%. `CCCCC/C=C\C[C@@H](O)/C=C/C=C\C/C=C\CCCC(=O)O` [12(R)-HETE, 12(R)-hydroxy-5,8,10,14(Z,Z,E,Z)-eicosatetraenoic acid]: the “EBV infection, percentage of inhibition compared to infected PBMC cultured in the absence of analogs” value with EBV [1] came out at 65%. In addition, the “HSV-1 infection, percentage of inhibition compared to infected PBMC cultured in the absence of analogs” value in the experiment with HSV-1 (strain McIntyre) is on record as 70%.

In the case of `O=C(O)CCC[C@H](O)\C=C/C=C/C=C/[C@H](O)C/C=C\CCCCCO` [20-OH-LTB4, 20-hydroxy-LTB4], the “HSV-1 infection, percentage of inhibition compared to infected PBMC cultured in the absence of analogs” value with HSV-1 (strain McIntyre) is 74%. On to `CCCCCCCC\C=C/C=C/C=C/[C@@H]1O[C@H]1CCCC(=O)OC` [LTA3 methyl ester, 14,15-dihydro-LTA4 methyl ester], for which the “EBV infection, percentage of inhibition compared to infected PBMC cultured in the absence of analogs” value in the experiment with EBV [1] is reported as 65%. Also, the “HSV-1 infection, percentage of inhibition compared to infected PBMC cultured in the absence of analogs” value with HSV-1 (strain McIntyre) came out at 60%. By pIC50 is commonly meant the negative decadic logarithm of the IC50, by convention in mol/L. On to `Nc1nc(O)c2ncn(COC(CO)CO)c2n1` [ganciclovir], for which the pIC50 in the experiment with EBV [2] was 6.00; with HSV, 5.62.
